Active and inactive are the calls of the source.
What was measured:
HEK293 [1] = experiment: membrane integrity loss in HEK cells – cell-based, fluorescence, cytotoxicity control for IDE activator project, dose response (AID 588440); type: functional; settings: Homo sapiens;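 note: cytotoxicity by LDH release measuring loss of membrane integrity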
HEK293 [2] = experiment: optical interference in Abeta FP readout, dose response, artefact control for IDE activator project, biochemical, fluorescence polarization (AID 588442); type: functional, cell-based; settings: Homo sapiens
Insulin-degrading enzyme [3] = biological target: T1, Insulin-degrading enzyme (Homo sapiens, UniProt P14735); experiment: cellular IDE activation of Abeta substrate cleavage – fluorescence polarization, HEK cells, dose response (AID 588439); type: functional, cell-based
T1 sequence (P14735 whole entry): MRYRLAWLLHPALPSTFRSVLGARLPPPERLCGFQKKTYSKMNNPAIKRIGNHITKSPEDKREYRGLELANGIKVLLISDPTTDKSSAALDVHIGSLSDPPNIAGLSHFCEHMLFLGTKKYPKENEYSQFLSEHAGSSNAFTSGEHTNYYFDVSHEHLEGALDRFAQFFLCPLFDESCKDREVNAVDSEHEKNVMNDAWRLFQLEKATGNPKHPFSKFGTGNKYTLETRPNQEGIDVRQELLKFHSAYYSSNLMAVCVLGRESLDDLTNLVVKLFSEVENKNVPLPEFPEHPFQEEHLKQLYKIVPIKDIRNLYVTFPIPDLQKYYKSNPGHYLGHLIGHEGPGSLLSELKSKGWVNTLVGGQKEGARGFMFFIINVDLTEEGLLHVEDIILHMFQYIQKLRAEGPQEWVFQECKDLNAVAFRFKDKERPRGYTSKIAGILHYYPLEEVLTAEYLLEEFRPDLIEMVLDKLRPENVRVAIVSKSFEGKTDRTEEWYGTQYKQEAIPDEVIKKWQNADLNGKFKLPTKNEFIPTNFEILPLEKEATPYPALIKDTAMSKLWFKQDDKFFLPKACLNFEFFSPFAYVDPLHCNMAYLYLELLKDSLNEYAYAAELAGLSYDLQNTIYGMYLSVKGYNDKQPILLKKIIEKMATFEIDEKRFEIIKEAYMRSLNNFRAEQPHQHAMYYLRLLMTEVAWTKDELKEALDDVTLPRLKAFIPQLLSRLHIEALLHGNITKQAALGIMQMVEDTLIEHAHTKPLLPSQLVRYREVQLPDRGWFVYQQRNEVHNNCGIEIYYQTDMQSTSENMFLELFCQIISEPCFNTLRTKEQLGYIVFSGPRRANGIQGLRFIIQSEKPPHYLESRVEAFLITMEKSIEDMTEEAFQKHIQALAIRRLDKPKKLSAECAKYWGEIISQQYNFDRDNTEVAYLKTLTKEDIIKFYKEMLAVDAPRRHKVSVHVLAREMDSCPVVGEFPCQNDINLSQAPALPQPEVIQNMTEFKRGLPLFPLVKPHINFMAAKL

Insulin-degrading enzyme [4] = biological target: T1, Insulin-degrading enzyme; experiment: recombinant IDE activation, cell-free – biochemical, fluorescence polarization, counter-screen for IDE activator project, dose response (AID 588681)
[5] = biological target: Sphingosine 1-phosphate receptor 2 (Homo sapiens, UniProt O95136); experiment: Late-stage fluorescence-based dose-response cell-based counterscreen assay to identify agonists of the Sphingosine 1-Phosphate Receptor 3 (S1P3): Sphingosine 1-Phosphate Receptor 2 (S1P2) agonist assay.; type: functional
Sphingosine 1-phosphate receptor 2, sequence (O95136 whole entry): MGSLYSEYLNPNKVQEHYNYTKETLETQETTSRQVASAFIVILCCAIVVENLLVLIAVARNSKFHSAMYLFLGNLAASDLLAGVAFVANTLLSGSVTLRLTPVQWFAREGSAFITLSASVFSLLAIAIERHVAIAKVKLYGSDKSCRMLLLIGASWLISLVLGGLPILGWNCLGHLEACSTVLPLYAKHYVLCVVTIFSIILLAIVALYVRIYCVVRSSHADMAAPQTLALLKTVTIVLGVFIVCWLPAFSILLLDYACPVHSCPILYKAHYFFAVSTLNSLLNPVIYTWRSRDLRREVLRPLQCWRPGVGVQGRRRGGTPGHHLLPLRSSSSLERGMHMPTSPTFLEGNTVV

[6] = biological target: T2, Sphingosine 1-phosphate receptor 4 (Homo sapiens, UniProt O95977); experiment: Late-stage fluorescence-based dose-response cell-based counterscreen assay to identify agonists of the Sphingosine 1-Phosphate Receptor 3 (S1P3): Sphingosine 1-Phosphate Receptor 4 (S1P4) agonist assay.; type: functional
T2 sequence (O95977 whole entry): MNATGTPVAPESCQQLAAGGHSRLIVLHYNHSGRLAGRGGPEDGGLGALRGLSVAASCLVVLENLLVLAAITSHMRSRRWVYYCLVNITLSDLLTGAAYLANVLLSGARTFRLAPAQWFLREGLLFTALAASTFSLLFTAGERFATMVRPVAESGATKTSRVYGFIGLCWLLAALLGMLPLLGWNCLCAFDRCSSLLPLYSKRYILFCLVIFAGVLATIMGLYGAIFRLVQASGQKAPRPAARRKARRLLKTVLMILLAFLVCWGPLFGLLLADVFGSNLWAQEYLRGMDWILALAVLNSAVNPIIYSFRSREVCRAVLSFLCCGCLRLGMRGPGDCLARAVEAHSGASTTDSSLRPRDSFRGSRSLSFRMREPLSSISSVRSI

[7] = biological target: T3, Orexin/Hypocretin receptor type 1 (Homo sapiens, UniProt O43613); experiment: Homogeneous Time Resolved Fluorescence (HTRF)-based cell-based high throughput dose response assay for antagonists of the orexin 1 receptor (OX1R; HCRTR1). [Related pubchem assays (depositor defined):AID434989, AID435008, AID463079, AID485270, AID492963, AID492964, AID492965, AID493232, AID504717, AID504718]; type: functional
T3 sequence (O43613 whole entry, the tested form may be a part): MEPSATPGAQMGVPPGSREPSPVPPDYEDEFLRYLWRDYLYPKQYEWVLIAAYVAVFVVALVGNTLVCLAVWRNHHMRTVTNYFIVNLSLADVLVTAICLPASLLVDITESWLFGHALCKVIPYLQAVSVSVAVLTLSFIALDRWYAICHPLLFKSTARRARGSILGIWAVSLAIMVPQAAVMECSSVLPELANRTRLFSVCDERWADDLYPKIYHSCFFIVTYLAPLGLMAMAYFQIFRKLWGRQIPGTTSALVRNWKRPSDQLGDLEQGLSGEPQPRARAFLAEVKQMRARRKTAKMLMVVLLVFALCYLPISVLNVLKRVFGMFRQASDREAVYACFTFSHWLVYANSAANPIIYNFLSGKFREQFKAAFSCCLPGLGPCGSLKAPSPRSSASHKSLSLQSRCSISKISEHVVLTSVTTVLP

[8] = biological target: T4, RNA-binding protein pos-1 (Caenorhabditis elegans, UniProt G5EF15); experiment: disruptors of C. elegans POS-1 RNA interaction – biochemical, fluorescence polarization, dose response (AID 1964);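 note: purified POS-1 fused to maltose binding protein made in E. coli; potency of compounds blocking POS-1 binding to fluorescent RNA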
T4 sequence (G5EF15 whole entry): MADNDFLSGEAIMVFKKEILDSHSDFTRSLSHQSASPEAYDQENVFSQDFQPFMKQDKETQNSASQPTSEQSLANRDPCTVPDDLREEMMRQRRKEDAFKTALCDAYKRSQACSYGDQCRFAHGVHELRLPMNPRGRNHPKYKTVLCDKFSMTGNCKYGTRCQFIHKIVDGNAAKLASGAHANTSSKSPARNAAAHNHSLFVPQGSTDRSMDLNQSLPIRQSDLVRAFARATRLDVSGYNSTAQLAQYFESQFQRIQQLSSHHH

CHO-K1 = experiment: (§1) Counterscreen for antagonists of the orexin 1 receptor (OX1R; HCRTR1): Homogeneous time resolved fluorescence (HTRF)-based cell-based dose response assay to identify antagonists of the parental CHO-K1 cell line. [Related pubchem assays (depositor defined):AID434989, AID435008, AID463079, AID485270, AID492963, AID492964, AID492965, AID493232, AID504699, AID504701]; type: functional; settings: Cricetulus griseus
Orexin receptor type 2 [9] = biological target: T5, Orexin receptor type 2 (Homo sapiens, UniProt O43614); experiment: Counterscreen assay for antagonists of the orexin 1 receptor (OX1R; HCRTR1): Fluorescence-based cell-based dose response assay for antagonists of the orexin 2 receptor (OX2R; HCRTR2), run by assay provider.; type: functional
T5 sequence (O43614 whole entry): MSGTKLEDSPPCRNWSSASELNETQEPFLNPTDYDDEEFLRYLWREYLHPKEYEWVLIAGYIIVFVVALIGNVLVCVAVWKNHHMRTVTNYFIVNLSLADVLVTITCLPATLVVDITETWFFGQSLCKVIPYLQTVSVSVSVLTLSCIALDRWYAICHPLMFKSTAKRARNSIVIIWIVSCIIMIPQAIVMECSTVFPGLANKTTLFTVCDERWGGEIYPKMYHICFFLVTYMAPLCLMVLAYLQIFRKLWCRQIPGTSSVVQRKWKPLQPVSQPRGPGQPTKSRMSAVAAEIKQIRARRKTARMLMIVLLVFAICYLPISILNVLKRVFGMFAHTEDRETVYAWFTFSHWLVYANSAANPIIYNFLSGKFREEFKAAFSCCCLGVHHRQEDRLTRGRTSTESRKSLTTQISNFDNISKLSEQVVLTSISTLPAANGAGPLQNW

[10] = biological target: T6, Zinc finger protein mex-5 (Caenorhabditis elegans, UniProt Q9XUB2); experiment: potency of MEX-5 RNA-binding blockers – biochemical, C. elegans, fluorescence polarization, dose response (AID 1960)
T6 sequence (Q9XUB2 whole entry): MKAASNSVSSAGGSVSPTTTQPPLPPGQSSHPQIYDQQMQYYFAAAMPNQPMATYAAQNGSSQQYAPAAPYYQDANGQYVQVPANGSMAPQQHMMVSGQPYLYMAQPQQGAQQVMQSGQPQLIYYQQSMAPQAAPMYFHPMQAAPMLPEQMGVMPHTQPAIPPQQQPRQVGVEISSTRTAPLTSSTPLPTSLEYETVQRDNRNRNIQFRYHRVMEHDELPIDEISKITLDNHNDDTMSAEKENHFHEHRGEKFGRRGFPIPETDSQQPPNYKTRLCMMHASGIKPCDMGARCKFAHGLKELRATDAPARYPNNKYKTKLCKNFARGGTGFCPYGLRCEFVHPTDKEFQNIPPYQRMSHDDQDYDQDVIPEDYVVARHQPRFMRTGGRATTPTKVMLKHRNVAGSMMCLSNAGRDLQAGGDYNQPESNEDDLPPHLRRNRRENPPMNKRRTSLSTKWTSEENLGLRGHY

[11] = as §1, with “Fluorescence-based” for “Homogeneous time resolved fluorescence (HTRF)-based”, “cell-based high throughput” for “cell-based”, “CHO” for “CHO-K1”; type: functional
[12] = biological target: T7, Polyadenylate-binding protein 1 (Homo sapiens, UniProt P11940); experiment: MLLE binding blockers, Cy5 peptide tracer – biochemical, fluorescence polarization, Cy5-PAM2 peptide, secondary, miRNA deadenylation inhibitor project, dose response (AID 602260); type: functional; settings: read-out: IC50_Mean
T7 sequence (P11940 whole entry): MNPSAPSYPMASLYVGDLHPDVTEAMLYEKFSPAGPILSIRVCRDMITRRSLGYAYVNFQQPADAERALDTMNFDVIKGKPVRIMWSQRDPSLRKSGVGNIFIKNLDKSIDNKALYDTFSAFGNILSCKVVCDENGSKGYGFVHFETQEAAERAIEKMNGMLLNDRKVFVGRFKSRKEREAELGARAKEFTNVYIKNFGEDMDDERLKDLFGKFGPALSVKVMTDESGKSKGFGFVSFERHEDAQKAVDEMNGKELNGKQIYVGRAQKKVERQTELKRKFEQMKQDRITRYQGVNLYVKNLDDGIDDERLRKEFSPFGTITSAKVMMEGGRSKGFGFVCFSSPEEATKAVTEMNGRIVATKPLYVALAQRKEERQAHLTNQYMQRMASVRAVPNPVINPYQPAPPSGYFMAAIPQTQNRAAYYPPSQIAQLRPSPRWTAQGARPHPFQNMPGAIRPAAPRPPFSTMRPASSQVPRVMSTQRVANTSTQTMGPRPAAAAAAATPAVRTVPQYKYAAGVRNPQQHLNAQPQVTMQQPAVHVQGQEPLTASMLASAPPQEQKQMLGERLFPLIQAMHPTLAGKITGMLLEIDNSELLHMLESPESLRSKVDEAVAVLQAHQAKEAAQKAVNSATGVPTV

Orexin receptor type 2 [13] = biological target: T5, Orexin receptor type 2; experiment: Counterscreen assay for antagonists of the orexin 1 receptor (OX1R; HCRTR1): Homogeneous Time Resolved Fluorescence (HTRF)-based cell-based dose response assay for antagonists of the orexin 2 receptor (OX2R; HCRTR2), run by assay provider.; type: functional
[14] = biological target: T3, Orexin/Hypocretin receptor type 1; experiment: Fluorescence-based cell-based high throughput dose response assay for antagonists of the orexin 1 receptor (OX1R; HCRTR1). [Related pubchem assays (depositor defined):AID434989, AID435008, AID463079, AID485270, AID492963, AID492964, AID492965, AID493232, AID504717, AID504718]; type: functional
[15] = biological target: T7, Polyadenylate-binding protein 1; experiment: MLLE domain peptide-binding blockers, IC50 – biochemical, fluorescence polarization, FITC-PAM2 peptide, dose response (AID 602259); type: functional; settings: read-out: IC50_Mean

Q: With `CC(C)CCn1nnnc1CN1CCN(c2ccccc2)CC1` as the compound, how does the IC50 (HEK293 [1]) read?
A: Its IC50 is > 89.1 µM (inactive).

Q: And the EC50 (HEK293 [2])?
A: Its EC50 is > 55.9 µM (inactive).

Q: What about the EC50 (Insulin-degrading enzyme [3]) of the same compound?
A: The EC50 was 32.3 µM (inactive).

Q: What about the EC50 (Insulin-degrading enzyme [4]) of the same compound?
A: Its EC50 is 29.8 µM (inactive).

Q: With `Cc1cc(C(=O)N(C2CCCCC2)C2CCCCC2)no1` as the compound, how does the EC50 [5] read?
A: The EC50 was > 50 µM (inactive).

Q: And the EC50 [6]?
A: The EC50 was > 50 µM (inactive).

Q: Which IC50 [7] does the source give for `COc1ccc(/C=c2\sc3nc(-c4ccccc4OC)nn3c2=O)c(OC)c1` here?
A: The IC50 was 0.723 µM (active).

Q: And the EC50 [8]?
A: Its EC50 is 21.5 µM (active).

Q: What about the IC50 (CHO-K1) of the same compound?
A: Its IC50 is > 66.2 µM (inactive).

Q: And the IC50 (Orexin receptor type 2 [9])?
A: The IC50 was 33.5 µM (inactive).

Q: What about the EC50 [10] of the same compound?
A: Its EC50 is 31.4 µM (active).

Q: What about the IC50 [11] of the same compound?
A: Its IC50 is > 49.8 µM (inactive).

Q: And the IC50 [12]?
A: The IC50 was > 66 µM (inactive).

Q: What about the IC50 (Orexin receptor type 2 [13]) of the same compound?
A: Its IC50 is > 50 µM (inactive).

Q: What about the IC50 [14] of the same compound?
A: The IC50 was 0.526 µM (active).

Q: And the IC50 [15]?
A: The IC50 was 48.3 µM (inactive).
